Reference: PubChem BioAssay (NCI)
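All cell lines were grown in 96-well plates and treated with compound for 48 hours. The concentration for full growth arrest is given as TGI.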

Columns and labels:
Test in all cases: NCI-60 cell line screen, 48 h
NCI-H460 lung = tested on: NCI-H460 lung
KM12 colon = tested on: KM12 colon
SN12C renal = tested on: SN12C renal
OVCAR-8 ovarian = tested on: OVCAR-8 ovarian
MDA-MB-231 breast = tested on: MDA-MB-231 breast
HS 578T breast = tested on: HS 578T breast
OVCAR-5 ovarian = tested on: OVCAR-5 ovarian
HL-60(TB) leukemia = tested on: HL-60(TB) leukemia
TK-10 renal = tested on: TK-10 renal
NCI-H226 lung = tested on: NCI-H226 lung
SK-MEL-2 melanoma = tested on: SK-MEL-2 melanoma
BT-549 breast = tested on: BT-549 breast
HOP-62 NSCLC = tested on: HOP-62 NSCLC
HCT-116 colon = tested on: HCT-116 colon
HCT-15 colon = tested on: HCT-15 colon
SK-OV-3 ovarian = tested on: SK-OV-3 ovarian
M14 melanoma = tested on: M14 melanoma
MOLT-4 leukemia = tested on: MOLT-4 leukemia
NCI-H23 lung = tested on: NCI-H23 lung
K-562 leukemia = tested on: K-562 leukemia
RPMI-8226 leukemia = tested on: RPMI-8226 leukemia
SF-268 CNS = tested on: SF-268 CNS
A498 renal = tested on: A498 renal
IGROV1 ovarian = tested on: IGROV1 ovarian
UACC-62 melanoma = tested on: UACC-62 melanoma
SNB-75 CNS = tested on: SNB-75 CNS
MALME-3M melanoma = tested on: MALME-3M melanoma
SK-MEL-5 melanoma = tested on: SK-MEL-5 melanoma
EKVX NSCLC = tested on: EKVX NSCLC
CAKI-1 renal = tested on: CAKI-1 renal
MDA-MB-435 = tested on: MDA-MB-435
T-47D breast = tested on: T-47D breast
CCRF-CEM leukemia = tested on: CCRF-CEM leukemia
ACHN renal = tested on: ACHN renal
SF-539 CNS = tested on: SF-539 CNS
DU-145 prostate = tested on: DU-145 prostate
786-0 renal = tested on: 786-0 renal
A549 NSCLC = tested on: A549 NSCLC
SW-620 colon = tested on: SW-620 colon
UACC-257 melanoma = tested on: UACC-257 melanoma
HOP-92 NSCLC = tested on: HOP-92 NSCLC
MDA-N = tested on: MDA-N
SNB-19 CNS = tested on: SNB-19 CNS
SF-295 CNS = tested on: SF-295 CNS
PC-3 prostate = tested on: PC-3 prostate
OVCAR-3 ovarian = tested on: OVCAR-3 ovarian
NCI/ADR-RES ovarian = tested on: NCI/ADR-RES ovarian
HT29 colon = tested on: HT29 colon
COLO 205 colon = tested on: COLO 205 colon
SK-MEL-28 melanoma = tested on: SK-MEL-28 melanoma
OVCAR-4 ovarian = tested on: OVCAR-4 ovarian
UO-31 renal = tested on: UO-31 renal
LOX IMVI melanoma = tested on: LOX IMVI melanoma
RXF 393 renal = tested on: RXF 393 renal
MCF7 breast = tested on: MCF7 breast
U251 CNS = tested on: U251 CNS
NCI-H522 lung = tested on: NCI-H522 lung
SR leukemia = tested on: SR leukemia
HCC-2998 colon = tested on: HCC-2998 colon

Measured: TGI

CC1=C[C@@H]2Cc3nc4cc(Cl)ccc4c(N)c3[C@H](C1)C2
17.7 µM: UO-31 renal
17.3 µM: OVCAR-5 ovarian
19.5 µM: TK-10 renal
23.4 µM: A498 renal
11.2 µM: SK-MEL-5 melanoma
31.7 µM: BT-549 breast
18.3 µM: RXF 393 renal
4.9 µM: UACC-257 melanoma
11.6 µM: MOLT-4 leukemia
31.5 µM: UACC-62 melanoma | MDA-N
25.1 µM: SK-MEL-28 melanoma
14.3 µM: K-562 leukemia
38.9 µM: OVCAR-8 ovarian
24.6 µM: MALME-3M melanoma
24.3 µM: HCT-15 colon | SK-OV-3 ovarian
10.8 µM: HOP-92 NSCLC
23.1 µM: NCI-H460 lung | ACHN renal
24.2 µM: OVCAR-3 ovarian
13.3 µM: EKVX NSCLC
29.6 µM: SN12C renal
14.5 µM: HCT-116 colon
23.3 µM: MCF7 breast
19 µM: 786-0 renal
25.8 µM: SF-268 CNS | MDA-MB-435
25 µM: NCI/ADR-RES ovarian
74 µM: CCRF-CEM leukemia
32.5 µM: NCI-H226 lung
35.3 µM: HL-60(TB) leukemia
25.3 µM: SF-539 CNS | SW-620 colon
37.4 µM: T-47D breast
2.92 µM: COLO 205 colon
20 µM: SF-295 CNS
28.7 µM: MDA-MB-231 breast
13.4 µM: RPMI-8226 leukemia
18.2 µM: OVCAR-4 ovarian
8.14 µM: IGROV1 ovarian
24 µM: HOP-62 NSCLC | SNB-19 CNS
34.9 µM: A549 NSCLC
9.75 µM: HS 578T breast
18.1 µM: M14 melanoma
27.3 µM: DU-145 prostate
21.6 µM: KM12 colon
22.3 µM: NCI-H23 lung | LOX IMVI melanoma
26.9 µM: PC-3 prostate
37.7 µM: U251 CNS
17.4 µM: CAKI-1 renal
13.2 µM: HT29 colon
29.7 µM: SK-MEL-2 melanoma
17.9 µM: SNB-75 CNS

COc1cc(NS(C)(=O)=O)ccc1Nc1cc(C)[nH]c2ccc3nccc3c12
not listed: SK-OV-3 ovarian | MOLT-4 leukemia | SNB-75 CNS | MALME-3M melanoma | CCRF-CEM leukemia | SF-539 CNS | RXF 393 renal | SR leukemia | HCC-2998 colon
> 100 µM: all other assays above

Cc1cc(C(=O)CCCCOc2ccc(C3=NCCO3)cc2)c(C)n1C
54.9 µM: SR leukemia
65.6 µM: T-47D breast
72.8 µM: RXF 393 renal
62.4 µM: RPMI-8226 leukemia
86.8 µM: A498 renal
23.7 µM: HL-60(TB) leukemia
79.8 µM: DU-145 prostate
46.6 µM: CCRF-CEM leukemia
34.9 µM: SK-MEL-5 melanoma
59.7 µM: PC-3 prostate
98 µM: NCI-H226 lung
88 µM: MDA-N
83.1 µM: SK-MEL-28 melanoma
76.6 µM: MDA-MB-435
34.4 µM: MOLT-4 leukemia
not listed: NCI-H460 lung | UACC-62 melanoma | SF-539 CNS | A549 NSCLC | HOP-92 NSCLC | LOX IMVI melanoma | HCC-2998 colon
> 100 µM: all other assays above

COc1ccc(-c2nc(SCC(=O)N/N=C/c3ccc(N(C)C)cc3)[nH]c2-c2ccc(OC)cc2)cc1
24.5 µM: COLO 205 colon
not listed: HS 578T breast | NCI-H226 lung | MOLT-4 leukemia | RPMI-8226 leukemia | SR leukemia
> 100 µM: all other assays above
